Experimental findings from publication PMC3522636, “4F Decreases IRF5 Expression and Activation in Hearts of Tight Skin Mice” (PLoS ONE, 2012) are described below.

“Also recorded” adds a separate entry of the source.

For assay [1], the target named is biotin-labeled 4F (biotin-labeled …-NH2). Description: pull-down; B-4F added to precleared endothelial cell cytosolic fractions spiked with recombinant IRF5, 3 h at 4°C; SA agarose beads overnight at 4°C; immunoblot for IRF5.
The next assay addresses T1, IRF5 (Homo sapiens, UniProt Q13568).
T1 construct: purchased GenScript USA Inc
T1 sequence (Q13568 1-498): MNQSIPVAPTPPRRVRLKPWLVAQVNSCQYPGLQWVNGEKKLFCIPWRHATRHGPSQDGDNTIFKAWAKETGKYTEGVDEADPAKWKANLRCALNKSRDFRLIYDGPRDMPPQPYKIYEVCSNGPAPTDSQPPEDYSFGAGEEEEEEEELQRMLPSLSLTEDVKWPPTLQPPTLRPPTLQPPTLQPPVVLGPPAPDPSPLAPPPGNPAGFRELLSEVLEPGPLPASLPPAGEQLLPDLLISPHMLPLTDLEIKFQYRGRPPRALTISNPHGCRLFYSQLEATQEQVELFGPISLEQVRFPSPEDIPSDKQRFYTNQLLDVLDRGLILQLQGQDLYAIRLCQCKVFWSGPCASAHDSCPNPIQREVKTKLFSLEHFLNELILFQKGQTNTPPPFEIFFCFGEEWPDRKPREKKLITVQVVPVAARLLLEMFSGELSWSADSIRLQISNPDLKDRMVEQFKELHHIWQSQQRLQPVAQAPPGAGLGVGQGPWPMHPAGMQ
Description: B-4F pulldown assay from EC cytosolic fractions spiked with recombinant IRF5. Type of assay: binding. The settings on record: immunoblot. On the procedure: B-4F Pulldown Assays: To determine whether 4F interacts with IRF5 in the presence of cystosol proteins, we performed 4F pulldown assays on EC cytosolic fractions spiked with recombinant IRF5. Briefly, cytosolic EC fractions were precleared with SA agarose beads (Cat#15942-050, Invitrogen) for 30 minutes at 4°C. IRF5 interactions were enhanced by adding recombinant IRF5 (2% wt/vol, Genscript USA Inc.) to the endothelial cytosolic fractions. 4F and B-4F were added to the cytosolic fractions and incubated for 3 hours at 4°C. SA agarose beads were added and the samples mixed end-over-end overnight at 4°C. The following day the SA agarose beads were isolated by centrifugation. The proteins associated with B-4F were released from the beads with Laemmli buffer and separated by SDS-PAGE (4–15%) as above. IRF5 levels in the pulldown samples were determined by autoradiography of immunoblots as above.
In general terms: In western blotting, separated proteins are transferred to a membrane and probed.

Assay [2] deals with Human umbilical vein endothelial cells. Description: Cellular uptake of B-4F in endothelial cells. Type of assay: cell-based. The settings on record: vs unlabeled 4F, confocal; for increase of fluorescence intensity in EC: 4 hours, fluorescein-streptavidin. Here is the method:
Human umbilical vein endothelial cells (EC; Lonza, Walkersville, MD) were incubated in EGM complete media containing 4F or B-4F (10 and 50 µg/ml) for 4 hours. The EC cultures were washed with PBS, fixed in PBS containing 1% paraformaldehyde, and permeabilized with PBS containing 0.5% Triton-X. The permeabilized sections were incubated with fluorescein-conjugated streptavidin (1 µg/ml) for 30 minutes followed by 3 PBS washes. The fixed and fluorescently labeled slides were mounted in aqueous mounting media and sections inspected and analyzed by confocal microscopy.

Take “recombinant IRF5 (from UniProt Q13568 1-498) (natural protein)”: the fold IRF5 in the B-4F precipitate over control lane 1 in assay [1] amounted to 2.5 fold.
In the case of “biotin-labeled DWFKAFYDKVAEKFKEAF-NH2 [B-4F, biotin-labeled 4F, synthesized with one more cycle with FMOC-Lys(biotinyl-ε-aminocaproyl)-OH]”, the “association with IRF5 in presence of EC cytosolic proteins (in words)” value on IRF5 (3 hours at 4°C, SA agarose beads overnight at 4°C) was “associates with IRF5 even in the presence of EC cytosolic proteins”. Moreover, the “IRF5 bound to the B-4F precipitate relative to control” value at IRF5 (EC lysates with recombinant IRF5 (10 µg/mL), SA-agarose pulldown, lane 2 vs control lane 1) was determined as 2.5 fold. Further, the “increase of fluorescence intensity in EC” value in assay [2] (B-4F 10 µg/ml) was “approximately 30%”; in assay [2] (B-4F 50 µg/ml, p≤0.05), 3.6 fold. For the same substance, the “uptake into EC (in words)” value in assay [2] (B-4F 10 and 50 µg/ml, 4 hours (method), 3 hours (Figure 6)) was “greater fluorescence in EC cultures incubated with 10 and 50 µg/ml of B-4F than in EC cultures incubated with equal concentrations of unlabeled 4F; also recorded: B-4F content is increased in ECs incubated with 10 and 50 µg/ml”.
